The GI50 is the concentration at which growth is held to half of that of the control. In general, TGI refers to the concentration giving total growth inhibition. High values mean less potent growth arrest, low ones more potent growth arrest.

Among the data in ChEMBL document CHEMBL1147943, “Antiproliferative activity of 4-chloro-5,6-dihydro-2H-pyrans. Part 2: Enhancement of drug cytotoxicity” (2007) are GI50, TGI and CC50 values, retold here.

Common to all, as to assay type: functional
Common to all, as to details: for CC50: read-out: LC50 (the source's name)

In experiment [1] the test system is A2780. Description: Antiproliferative activity against human A2780 cells.
Experiment [2] deals with SW1573. Description: Antiproliferative activity against human SW1573 cells.
In experiment [3] the test system is WiDr. Description: Antiproliferative activity against human WiDr cells.

Consider `C[C@@H]1O[C@H](CCC=C(Br)Br)C([Si](C)(C)C)=C(Cl)[C@H]1C`, for which, in experiment [1], the GI50 stood at 16 µM, the TGI was determined as 33 µM and the CC50 was found to be 70 µM. Also, in experiment [2], growth was halved (GI50) at 22 µM, net growth stopped (TGI) at 43 µM and the CC50 turned out to be 87 µM. In experiment [3], this molecule displayed a GI50 of 25 µM and a TGI of 90 µM.

As to `C[C@H]1CC(Cl)=C([Si](C)(C)C)[C@@H](C2CCCCC2)O1`, the GI50 in experiment [1] turned out to be 17 µM; in experiment [2] it was 16 µM; in experiment [3] it was 15 µM. The TGI in experiment [1] worked out at 32 µM; in experiment [2], 31 µM; in experiment [3], 33 µM. The results for the CC50 in experiment [1], in experiment [2] and in experiment [3] were 61 µM, 62 µM and 74 µM, respectively.

Consider `C[Si](C)(C)C1=C(Cl)C[C@H](C2CCCCC2)O[C@@H]1C1CCCCC1`, for which, in experiment [1], the GI50 was found to be 22 µM, the TGI is 46 µM and the CC50 turned out to be 90 µM. In experiment [2], the GI50 was determined as 23 µM, the TGI came to 48 µM and the CC50 turned out to be 88 µM. In addition, in experiment [3], it took 30 µM to inhibit growth by half (GI50), net growth stopped (TGI) at 81 µM and the CC50 was determined as 97 µM.

As for `CC(C)CC1OCCC(Cl)=C1[Si](C)(C)C` (centres undefined), the GI50 in experiment [1] was 27 µM; in experiment [2], 10 µM; in experiment [3], 20 µM. For the same molecule, the values for the TGI in experiment [1], in experiment [2] and in experiment [3] were 66 µM, 28 µM and 39 µM, respectively. Moreover, the CC50 in experiment [1] is 92 µM; in experiment [2], 65 µM; in experiment [3] it was 79 µM.

Consider `C#CCC[C@H]1O[C@@H](C)[C@H](C)C(Cl)=C1[Si](C)(C)C`, for which the GI50 is 21 µM in experiment [1], 19 µM in experiment [2] and 24 µM in experiment [3]. In addition, the TGI in experiment [1] amounted to 39 µM; in experiment [2] it was 37 µM; in experiment [3], 68 µM. Further, the CC50 in experiment [1] was 75 µM; in experiment [2], 75 µM; in experiment [3], 85 µM.

Turning to `ClC1=CC(CCC=C(Br)Br)OCC1` (centres undefined), in experiment [1], it took 16 µM to inhibit growth by half (GI50), total growth inhibition (TGI) required 53 µM and the CC50 was 76 µM. Further, in experiment [2], the GI50 is 30 µM and the TGI was determined as 92 µM. In experiment [3], halving of growth (GI50) required 23 µM, the total growth inhibition concentration (TGI) was 57 µM and the CC50 amounted to 96 µM.

`C[Si](C)(C)C1=C(Cl)C[C@H](Cc2ccccc2)O[C@@H]1C1CCCCC1`: the results for the GI50 in experiment [1], in experiment [2] and in experiment [3] were 34 µM, 30 µM and 62 µM, respectively. The TGI in experiment [1] stood at 78 µM; in experiment [3], 88 µM.

On to `C[C@@H]1O[C@H](C2CCCCC2)C([Si](C)(C)C)=C(Cl)[C@H]1C`, for which, in experiment [1], it took 19 µM to inhibit growth by half (GI50), net growth stopped (TGI) at 38 µM and the CC50 stood at 77 µM. In experiment [2], the GI50 amounted to 20 µM, net growth stopped (TGI) at 41 µM and the CC50 is 76 µM. In experiment [3], this molecule returned a GI50 of 42 µM and a TGI of 84 µM.

For the molecule `ClC1=CC(CCCCCCCCCCC2C=C(Cl)CCO2)OCC1` (centres undefined), in experiment [1], the concentration for 50% growth inhibition (GI50) worked out at 8.6 µM, the TGI worked out at 25 µM and the CC50 was determined as 65 µM. Also, in experiment [2], the GI50 was determined as 14 µM, the TGI turned out to be 36 µM and the CC50 was found to be 85 µM. In addition, in experiment [3], halving of growth (GI50) required 20 µM, total growth inhibition (TGI) required 61 µM and the CC50 is 89 µM.

Take `CC[C@H]1CC(Cl)=C([Si](C)(C)C)[C@@H](C2CCCCC2)O1`: in experiment [1], the GI50 came to 16 µM, the TGI was found to be 35 µM and the CC50 is 75 µM. In experiment [2], the GI50 worked out at 22 µM, the TGI worked out at 49 µM and the CC50 was 91 µM. In addition, in experiment [3], the GI50 is 29 µM, the TGI stood at 73 µM and the CC50 worked out at 95 µM.

Take `C=CCC[C@H]1O[C@@H](C)[C@H](C)C(Cl)=C1[Si](C)(C)C`: the figures for the GI50 in experiment [1], in experiment [2] and in experiment [3] were 17 µM, 23 µM and 37 µM, respectively. In addition, the values for the TGI in experiment [1] and in experiment [2] were 36 µM and 55 µM, respectively. In addition, the CC50 in experiment [1] was determined as 19 µM; in experiment [2], 92 µM.

For `C[Si](C)(C)C1=C(Cl)C[C@H](Cc2ccccc2)O[C@@H]1CCCCCCCCCC1C=C(Cl)CCO1` (some centres undefined), in experiment [1], halving of growth (GI50) required 23 µM, the TGI came out at 47 µM and the CC50 is 96 µM. Besides, in experiment [2], growth was halved (GI50) at 30 µM and net growth stopped (TGI) at 68 µM. Also, the GI50 in experiment [3] is 67 µM.

In the case of `ClC1=CC(C2CCCCC2)OCC1` (centres undefined), the GI50 in experiment [1] was 20 µM; in experiment [2] it was 26 µM; in experiment [3] it was 100 µM.

Take `C#CCCC1C=C(Cl)CCO1` (centres undefined): the GI50 is 37 µM in experiment [1], 41 µM in experiment [2] and above 100 µM in experiment [3].

As for `C[C@H]1CC(Cl)=C[C@@H](C2CCCCC2)O1`, the values for the GI50 in experiment [1], in experiment [2] and in experiment [3] were 19 µM, 12 µM and 65 µM, respectively. In addition, the TGI worked out at 38 µM in experiment [1] and 43 µM in experiment [2]. Besides, the CC50 in experiment [1] is 79 µM.

As for `CC[C@@H](C)[C@H]1O[C@@H](C)CC(Cl)=C1[Si](C)(C)C`, the GI50 in experiment [1], in experiment [2] and in experiment [3] was above 100 µM throughout.

In the case of `CC(C)CC1C=C(Cl)CCO1` (centres undefined), the GI50 in experiment [1], in experiment [2] and in experiment [3] was above 100 µM throughout.
